Reference: US20120101164A1, “ABSCISSION AND CROP STORAGE UNIT” (TAMINCO, NAAMLOZE VENNOOTSCHAP, priority 2009, published 2012)
Read-outs that look alike come from different tables or passages of the source.

Columns and labels:
Type in all cases: in vivo
[1] = test system: PAPAVER Nudicaule (Iceland Poppy); assay: Petal abscission delay, auxins/precursors with or without AC; conditions: for change in vivo at 10000 µM: Papaver nudicaule; for Total Duration of Flowering (to petal fall): auxin/precursor 10^-2 Molar solution, AC 3 g per hectare equivalent
Protocol: (§1) Cultural Details: plants were sown in a commercial seed compost and then “pricked out” into a professional grade all-purpose compost in 9 cm pots set out in a randomized block design. Normal daylight plus supplementary lighting to provide a minimum of 10 hours per day. Heating was given to a minimum of 60 degrees Fahrenheit during the day and 40 degrees at night.
Sowing Date: 18 Nov. […] Application Date: 5 Jan.
Measurement Date: 12 Jan.
A number of auxins or auxin precursors were applied, each at 10^−2 Molar solutions. Addition of acetaminophen (AC) was at 3 g per hectare equivalent in each test. Measurement: Delay of first petal fall for each treatment (in days).

RADISH—cv F1 Apache [2] = assay: Post-harvest shelf-life, auxins/precursors with or without AC; conditions: for change in vivo at 10000 µM: Raphanus sativus; for Shelf-Life Duration (days after harvest): ambient temperature, auxin/precursor 10^-2 Molar, AC 3 g per hectare equivalent, two applications
Protocol: as §1
Sowing Date: 3 Nov. […] Application Dates: 28 Dec. […] Harvest Date: 11 Jan. […] Measurement: Shelf-Life (days after harvest) at ambient temperature.
A number of auxins or auxin precursors were compared, each at 10^−2 Molar solutions. Addition of acetaminophen (AC) was at 3 g per hectare equivalent in each test.

[3] = test system: PAPAVER Nudicaule (Iceland Poppy); assay: Petal abscission delay, AN or AN + AC with additives; conditions: for Total Duration of Flowering (to petal fall): AN 1 g per hectare, AC 3 g per hectare, additive rate per ha as in label
Protocol: (§2) To each were added certain agrochemically acceptable additives, as examples.
as §1
Sowing Date: 19 Dec. 2009, in plugs. Application Date: 7 Feb. 2010.
Measurement Date: 12 Feb. 2010, at daily intervals.
Measurement: Delay of first petal-fall for each treatment (in days).

RADISH—cv F1 Apache [4] = assay: Post-harvest shelf-life, AN or AN + AC with additives; conditions: for Shelf-Life Duration (days after harvest): AN 1 g per hectare, AC 3 g per hectare, additive rate per ha as in label
Protocol: as §2, §1
Sowing Date: 28 Jan. 2010, in plugs. Application Date: 5 Mar. 2010.
Measurement Date: 13 Mar. 2010. • Measurement: Shelf-life duration (days).

[5] = duration of flowering, read-out: % Improvement over control
[6] = shelf-life, read-out: % Improvement over control
[7] = read-out: % Improvement over control, duration of flowering
[8] = read-out: % Improvement over control, shelf-life
[9] = read-out: % Improvement over control

SMILES	change in vivo at 10000 µM [1, 5] [%]	Total Duration of Flowering (to petal fall) [1] [days]	change in vivo at 10000 µM (RADISH—cv F1 Apache [2]; [6]) [%]	Shelf-Life Duration (days after harvest) (RADISH—cv F1 Apache [2]) [days]	change in vivo at 10000 µM [1, 7] [%]	change in vivo at 10000 µM (RADISH—cv F1 Apache [2]; [8]) [%]	other results
Nc1c(O)cccc1C(=O)O [3-Hydroxyanthranilic acid]	18.4	11.6	15.9	7.3	–	–	–
CC(=O)Nc1ccc(O)cc1 [AC, N-(4-hydroxypheyl)acetamide, reference compound]	0	9.9	0	6.2	–	–	Total Duration of Flowering (to petal fall) [3]: 8.8 days; Shelf-Life Duration (days after harvest) (RADISH—cv F1 Apache [4]): 5.8 days
CC(N)=O [Acetamide]	19.4	11.7	38.1	8.7	–	–	–
Nc1ccccc1C(=O)[O-].[Na+] [Anthranilic Acid monosodium salt]	–	11.7	–	7.7	19.4	22.2	–
COC(=O)c1ccccc1N [Anthranilic acid methyl ester]	–	12.1	–	8.7	23.5	38.1	–
Nc1ccccc1C(=O)O [Anthranilic acid, anthranilic acid]	–	12.2	–	8.6	–	–	Total Duration of Flowering (to petal fall) [3]: 10.9 days; % Improvement over appropriate control (ie AN or AN + AC) ([3]; duration of flowering): +0.0%; % Improvement over untreated ([3]; duration of flowering): +23.9%; Shelf-Life Duration (days after harvest) (RADISH—cv F1 Apache [4]): 8.5 days; % Improvement over untreated (RADISH—cv F1 Apache [4]; shelf-life): +44.1%; % Improvement over control ([1]; duration of flowering): +24.5%; % Improvement over control (RADISH—cv F1 Apache [2]; shelf-life): +36.5%
NC(=O)Cc1c[nH]c2ccccc12 [Indole-3-acetamide]	21.4	11.9	3.2	6.5	–	–	–
N[C@@H](Cc1c[nH]c2ccccc12)C(=O)O [L-Tryptophan]	–	10.8	–	6.5	–	–	change in vivo at 10000 µM [1, 9]: 10.2%; change in vivo at 10000 µM (RADISH—cv F1 Apache [2]; [9]): 3.2%
NCCc1c[nH]c2ccccc12 [Tryptamine]	–	11.7	–	7.0	19.4	11.1	–
